Data on 28 compounds can be found in ChEMBL document CHEMBL5625268, “Identification of novel benzothiazole derivatives as inhibitors of NEDDylation pathway to inhibit the progression of gastric cancer” (Bioorg Med Chem Lett, 2024).

Each structure is given as a SMILES string.

Test [1] relates to MCF7. Description: Antiproliferative activity against human MCF7 cells by CCK8 assay. In kind it is functional, cell-based.
Test [2] concerns KYSE-30. Description: Antiproliferative activity against human KYSE-30 cells by CCK8 assay. It counts as functional, cell-based. For orientation: Tetrazolium dyes change colour on reduction, which living cells bring about.
Test [3] concerns MGC-803. Description: Antiproliferative activity against human MGC-803 cells by CCK8 assay. In kind it is functional, cell-based.
Test [4] concerns A549. Nature of the test: Antiproliferative activity against human A549 cells by CCK8 assay. It counts as functional, cell-based.
The target of test [5] is T1, NEDD8-activating enzyme E1 regulatory subunit (Homo sapiens, UniProt Q13564).
T1 sequence (Q13564 whole entry): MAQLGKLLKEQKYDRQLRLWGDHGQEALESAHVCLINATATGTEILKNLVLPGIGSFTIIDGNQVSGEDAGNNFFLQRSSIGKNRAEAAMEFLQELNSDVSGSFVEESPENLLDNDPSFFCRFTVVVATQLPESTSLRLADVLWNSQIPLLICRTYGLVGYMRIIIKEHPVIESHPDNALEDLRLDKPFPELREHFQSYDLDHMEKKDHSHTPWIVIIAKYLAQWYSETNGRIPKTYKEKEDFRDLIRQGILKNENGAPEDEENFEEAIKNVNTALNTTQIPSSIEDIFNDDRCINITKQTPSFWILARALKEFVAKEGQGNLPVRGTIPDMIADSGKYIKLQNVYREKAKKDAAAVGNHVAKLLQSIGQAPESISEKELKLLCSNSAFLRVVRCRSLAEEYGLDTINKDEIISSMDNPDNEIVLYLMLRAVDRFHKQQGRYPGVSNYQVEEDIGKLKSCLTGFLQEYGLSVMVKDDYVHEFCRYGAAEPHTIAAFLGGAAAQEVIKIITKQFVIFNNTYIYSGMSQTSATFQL
Description: Inhibition of NAE (unknown origin).

The term IC50 denotes the midpoint of a concentration-inhibition curve. A high value points to lower potency. For `O=C(Nc1nc2ccc(NC(=O)C3CCN(Cc4ccccc4)CC3)cc2s1)c1ccccc1`, the IC50 was determined as 4.17 µM in test [1], 3.22 µM in test [2], 10.9 µM in test [3] and 4.33 µM in test [4].
In the case of `O=C(Nc1nc2ccc(NC(=O)C3CCN(Cc4ccccc4)CC3)cc2s1)c1ccc(F)cc1`, the IC50 in test [1] was found to be 5.74 µM; in test [2], 1.08 µM; in test [3], 12.7 µM; in test [4], 4.51 µM.
The corresponding values for `O=C(Nc1ccc2nc(NC(=O)C3COc4ccccc4O3)sc2c1)C1CCN(Cc2ccccc2)CC1` (stereo not given) are 11.7 µM, 13.8 µM, 11 µM and 11.4 µM.
For the compound `O=C(Nc1nc2ccc(NC(=O)C3CCN(Cc4ccccc4)CC3)cc2s1)c1ccc2ccccc2c1`, the IC50 in test [1] came to 11.9 µM; in test [2] it was 3 µM; in test [3], 8.76 µM; in test [4], 7.25 µM.
Consider `CCCc1ccc(C(=O)Nc2nc3ccc(NC(=O)C4CCN(Cc5ccccc5)CC4)cc3s2)cc1`, for which the IC50 in test [1] came to 1.55 µM; in test [2], 0.91 µM; in test [3], 1.87 µM; in test [4], 1.28 µM.
In turn, `COc1ccccc1/C=C1\SC(=O)N(CCC(=O)Nc2ccc(S(N)(=O)=O)cc2)C1=O` displayed an IC50 in test [5] of 12 µM.
Turning to `Nc1ccc(SCC(=O)Nc2ccc3nc(NC(=O)c4ccc(C(F)(F)F)cc4)sc3c2)cc1`, the IC50 is above 100 µM in test [1], 17.4 µM in test [2], 4.91 µM in test [3] and 41.2 µM in test [4].
For the compound `CCOc1cccc(F)c1C#Cc1cn([C@H]2O[C@@H](CNS(N)(=O)=O)[C@H](O)[C@@H]2O)c2ncnc(N)c12`, it took 0.004 µM to reach half-maximal inhibition in test [5] (IC50).
For the compound `CCCC(=O)Nc1nc2ccc(NC(=O)C3CCN(Cc4ccccc4)CC3)cc2s1`, the IC50 in test [1] came out at 37.5 µM; in test [2], 22.7 µM; in test [3] it was 30.1 µM; in test [4], 29.1 µM.
Take `O=C(Nc1nc2ccc(NC(=O)C3CCN(Cc4ccccc4)CC3)cc2s1)c1cccs1`: the 50% inhibitory concentration (IC50) is 3.24 µM in test [1], 1.64 µM in test [2], 2.77 µM in test [3] and 1.7 µM in test [4].
For `O=C(Nc1nc2ccc(NC(=O)C3CCN(Cc4ccccc4)CC3)cc2s1)c1ccco1`, the IC50 was 7.46 µM in test [1], 7.41 µM in test [2], 5.09 µM in test [3] and 4.25 µM in test [4].
In the case of `O=C(Nc1nc2ccc(NC(=O)C3CCN(Cc4ccccc4)CC3)cc2s1)c1cccc(F)c1`, the IC50 was found to be 7.32 µM in test [1], 1.71 µM in test [2], 13 µM in test [3] and 4.94 µM in test [4].
With `C/C=C/C(=O)Nc1nc2ccc(NC(=O)C3CCN(Cc4ccccc4)CC3)cc2s1`, the IC50 in test [1] was determined as 11.9 µM; in test [2], 17.7 µM; in test [3], 15.7 µM; in test [4], 12.8 µM.
With `O=C(Nc1nc2ccc(NC(=O)C3CCN(Cc4ccccc4)CC3)cc2s1)c1cccnc1`, the IC50 in test [1] amounted to 23.9 µM; in test [2], 19.6 µM; in test [3] it was 25.6 µM; in test [4], 20.4 µM.
The corresponding values for `O=C(Nc1nc2ccc(NC(=O)C3CCN(Cc4ccccc4)CC3)cc2s1)c1ccc(F)c(F)c1` are 8.54 µM, 1.82 µM, 6.85 µM and 5.58 µM.
Regarding `COc1cc(C(=O)Nc2nc3ccc(NC(=O)C4CCN(Cc5ccccc5)CC4)cc3s2)cc(OC)c1OC`, the IC50 amounted to 4.15 µM in test [1], 1.08 µM in test [2], 4.96 µM in test [3] and 5.6 µM in test [4].
With `O=C(Nc1nc2ccc(NC(=O)C3CCN(Cc4ccccc4)CC3)cc2s1)c1cscn1`, the IC50 in test [1] came out at 0.98 µM; in test [2] it was 0.73 µM; in test [3], 1.69 µM; in test [4], 1.19 µM.
Consider `NS(=O)(=O)OC[C@@H]1C[C@@H](n2ccc3c(N[C@H]4CCc5ccccc54)ncnc32)C[C@@H]1O` [PEVONEDISTAT], for which the IC50 in test [2] is 3.75 µM; in test [3], 1.84 µM; in test [4], 1.64 µM.
Take `Cc1ccc(C(=O)Nc2nc3ccc(NC(=O)C4CCN(Cc5ccccc5)CC4)cc3s2)cc1`: the IC50 in test [1] was 2.78 µM; in test [2], 1.19 µM; in test [3], 3.82 µM; in test [4], 2.18 µM.
For `O=C(Nc1nc2ccc(NC(=O)C3CCN(Cc4ccccc4)CC3)cc2s1)c1sccc1F`, the IC50 in test [1] was 2.35 µM; in test [2], 2.03 µM; in test [3], 2.8 µM; in test [4], 1.99 µM.
For `O=C(Nc1nc2ccc(NC(=O)C3CCN(Cc4ccccc4)CC3)cc2s1)c1ccccc1F`, the concentration for half-maximal inhibition (IC50) in test [1] was 11.4 µM; in test [2], 2.29 µM; in test [3] it was 12.9 µM; in test [4], 5.26 µM.
For `O=C(Nc1nc2ccc(NC(=O)C3CCN(Cc4ccccc4)CC3)cc2s1)c1ccc(Cl)o1`, the IC50 in test [1] was 1.88 µM; in test [2], 1.9 µM; in test [3], 1.75 µM; in test [4], 2.82 µM.
Taken in the same sequence, the figures for `O=C(Nc1nc2ccc(NC(=O)C3CCN(Cc4ccccc4)CC3)cc2s1)c1ccc(F)cc1Cl` were 15.9 µM, 2.08 µM, 10.7 µM and 3.77 µM.
On to `O=C(Nc1nc2ccc(NC(=O)C3CCN(Cc4ccccc4)CC3)cc2s1)c1ccc(-c2ccccc2)cc1`, for which the IC50 was found to be 10.7 µM in test [1], 2.88 µM in test [2], 7.84 µM in test [3] and 8.13 µM in test [4].
Take `O=C(Nc1nc2ccc(NC(=O)C3CCN(Cc4ccccc4)CC3)cc2s1)c1ccc(C(F)(F)F)cc1`: the IC50 in test [1] stood at 4.58 µM; in test [2], 1.25 µM; in test [3] it was 8.53 µM; in test [4], 6.29 µM.
`O=C(Nc1nc2ccc(NC(=O)C3CCN(Cc4ccccc4)CC3)cc2s1)c1sccc1Br`: the concentration for half-maximal inhibition (IC50) was 2.89 µM in test [1], 2.63 µM in test [2], 3.31 µM in test [3] and 2.47 µM in test [4].
Taken in the same sequence, the figures for `N#Cc1ccc(C(=O)Nc2nc3ccc(NC(=O)C4CCN(Cc5ccccc5)CC4)cc3s2)cc1` were 13.1 µM, 1.41 µM, 4.74 µM and 3.31 µM.
The corresponding values for `O=C(Nc1nc2ccc(NC(=O)C3CCN(Cc4ccccc4)CC3)cc2s1)c1ccc2c(c1)OCO2` are 1.63 µM, 1.33 µM, 1.85 µM and 1.35 µM.
